Data from article PMC9548378 (Science translational medicine, 2022).
pKd: −log10 of the molar value.

Target: T1, KDM4B (Homo sapiens, UniProt O94953)
T1 sequence (O94953 1-366): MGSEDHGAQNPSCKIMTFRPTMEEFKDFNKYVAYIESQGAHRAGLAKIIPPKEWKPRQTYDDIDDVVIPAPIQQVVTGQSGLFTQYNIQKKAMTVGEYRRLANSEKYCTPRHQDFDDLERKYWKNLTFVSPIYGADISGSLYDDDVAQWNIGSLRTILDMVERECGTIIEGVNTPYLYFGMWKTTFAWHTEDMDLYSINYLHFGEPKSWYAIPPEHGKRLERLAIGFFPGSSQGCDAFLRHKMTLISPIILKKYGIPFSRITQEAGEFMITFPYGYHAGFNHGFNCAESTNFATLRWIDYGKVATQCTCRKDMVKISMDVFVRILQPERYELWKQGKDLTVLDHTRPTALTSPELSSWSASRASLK
Assay: co-crystal structure
Type: binding

Compound `CN(c1ccccc1)c1ccc2c(c1)CCC[C@H]2CNc1cnccc1C(=O)O` [QC6352] has a pKd of 6.98.
